Test results as given in US20100129310A1, “STABILIZED DESLORATADINE COMPOSITION” (priority 2005, published 2010).

Experiment: Compatibility of desloratadine with excipient materials, N-formyl desloratadine by HPLC
Type: physicochemical
Experimental: Compatibility of desloratadine with various excipient materials was determined by mixing the drug and an excipient, then subjecting the mixture to direct exposure for 14 days at 40° C. and 75% relative humidity. The analytical results for the presence of N-formyl desloratadine in the samples (as determined by HPLC) were as tabulated below, where ratios are expressed on a weight basis. Desloratadine and polacrilin resin (AMBERLITE IRP64) were dispersed in water and stirred for 2 hours, isolated by filtration, and then dried at 60° C. until the loss on drying was not more than 10% w/w when tested using an infrared moisture balance at 105° C. Where citric acid was used, the quantity of citric acid was selected to adjust the pH of the dispersion to about 6.5. Where lactose was used, the quantity of lactose is 6 times the weight of other materials, and the lactose is dry mixed with the desloratadine or dried desloratadine-resin mixture.

Clc1ccc2c(c1)CCc1cccnc1C2=C1CCNCC1 [Desloratadine, 8-chloro-6,11-dihydro-11-(4-piperidinylidene)-5H-benzo[5,6]-cyclohepta[1,2-b]pyridine]
% N-Formyl DCL Initial (Initial): Nil | % N-Formyl DCL After exposure (direct exposure for 14 days at 40° C. and 75% relative humidity): Nil
